According to patent US8592580B2, “Substituted triazinone derivatives” (Sanofi, priority 2008, dated 2013):

Columns and labels:
GSK3β = GSK3β (Homo sapiens, UniProt P49841); assay: Inhibitory activity against GSK3β (33P-ATP phosphorylation of prephosphorylated GS1 peptide, four protocols); type: biochemical; details: protocol 3: 7.5 μM GS1 peptide, 10 μM ATP, 50 mM Hepes pH 7.2, one hour at room temperature
Description: Inhibitory Activity of the Medicament of the Present Invention Against GSK3β Four different protocols can be used. In a first protocol: 7.5 μM of prephosphorylated GS1 peptide and 10 μM ATP (containing 300,000 cpm of ^33P-ATP) were incubated in 25 mM Tris-HCl, pH 7.5, 0.6 mM DTT, 6 mM MgCl2, 0.6 mM EGTA, 0.05 mg/ml BSA buffer for 1 hour at room temperature in the presence of GSK3beta (total reaction volume: 100 microliters). In a second protocol: 4.1 μM of prephosphorylated GS1 peptide and 42 μM ATP (containing 260,000 cpm ^33P-ATP) were incubated in 80 mM Mes-NaOH, pH 6.5, 1 mM Mg acetate, 0.5 mM EGTA, 5 mM 2-mercaptoethanol, 0.02% Tween 20, 10% glycerol buffer for 2 hours at room temperature in the presence of GSK3beta. In a third protocol: 7.5 μM of prephosphorylated GS1 peptide and 10 μM ATP (containing 300,000 cpm of ^33P-ATP) were incubated in 50 mM Hepes, pH 7.2, 1 mM DTT, 1 mM MgCl2, 1 mM EGTA, 0.01% Tween 20 buffer for one hour at room temperature in the presence of GSK3beta (total reaction volume: 100 microliters). […] Incorporated ^33P radioactivity was determined by liquid scintillation spectrometry. […]

Chain of GSK3β (P49841 whole entry): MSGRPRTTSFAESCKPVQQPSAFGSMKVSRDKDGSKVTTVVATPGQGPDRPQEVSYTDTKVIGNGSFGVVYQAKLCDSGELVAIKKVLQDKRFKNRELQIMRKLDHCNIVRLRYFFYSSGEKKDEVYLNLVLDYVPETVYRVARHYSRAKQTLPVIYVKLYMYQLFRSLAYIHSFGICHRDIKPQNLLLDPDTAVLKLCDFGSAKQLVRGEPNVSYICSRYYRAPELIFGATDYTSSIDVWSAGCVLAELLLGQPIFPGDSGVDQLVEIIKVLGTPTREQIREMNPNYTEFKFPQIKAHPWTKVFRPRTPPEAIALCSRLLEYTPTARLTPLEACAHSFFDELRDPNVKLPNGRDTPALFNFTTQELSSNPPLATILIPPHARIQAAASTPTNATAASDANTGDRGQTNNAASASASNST

| IC50 (GSK3β) | melting point | Compound |
| --- | --- | --- |
| 50 nM | 235 to 237 °C | O=c1nc(-c2ccncc2)nc(NCCc2ccccc2)[nH]1 [compound 5, 6-(2-Phenylethyl)amino-4-pyridin-4-yl-1H-[1,3,5]triazin-2-one] |
| 372 nM | 242 to 244 °C | Cn1c(NCC(O)c2ccccc2)nc(-c2ccncc2)nc1=O (racemic) [Compound No. 1, (+/−)-6-(2-Hydroxy-2-phenyl-ethylamino)-1-methyl-4-pyridin-4-yl-1H-[1,3,5]triazin-2-one] |
